Values belong to the compound of their own block, whether it stands above or below them. Peptide text beside a SMILES is read from it.
Legend:
[1] = test system: differentiated SH-SY5Y neuronal cells; test: MTT reduction assay in differentiated SH-SY5Y cells; assay type: cell-based, human; conditions: 125 μM, 48 h; positive control for cytotoxicity
Protocol: (§1) Following a protocol established in our research group, , these compounds were tested at 100 μM concentration using the 3-(4,5-dimethylthiazol-2-yl)-2,5-diphenyltetrazolium bromide (MTT) reduction and the neutral red (NR) uptake assays.
(§2) 5 Neurotoxic effects of the synthesized compounds were examined via MTT reduction (A) and NR uptake (B) assays in differentiated SH-SY5Y neuronal cells. Cells were incubated for 48 h with 1, 9, MIF-1 (100 μM), or 6-OHDA (125 μM). Compounds were solubilized in phosphate-buffered saline (PBS) solution. Results are reported as a percentage relative to the control (PBS) and shown as mean ± standard deviation. Data were collected from 16 to 36 wells across 9 independent experiments for the MTT reduction assay and from 12 wells and 3 independent experiments for the NR uptake assay. Statistical analyses were performed using the analysis of variance (ANOVA) test, followed by Tukey’s post hoc test (*p < 0.05 and ****p < 0.0001 vs control).
(§3) 4. Cytotoxicity in Human Neuronal SH-SY5Y Cells. The SH-SY5Y cell line was sourced from Sigma-Aldrich (Taufkirchen, Germany). DMEM medium [DMEM (1x) + GlutaMAX], DMEM/F-12, and Fetal Bovine Serum (FBS) were purchased from Gibco and Alfagene (Carcavelos, Portugal). Penicillin and Streptomycin were obtained from Biotecnómica (Porto, Portugal). Phosphate-buffered solution (PBS) without calcium and magnesium was acquired from Biochrom (Berlin, Germany). Trypsin/EDTA solution, 0.4% (w/v) trypan blue solution, NR solution, RA, and TPA were also obtained from Sigma-Aldrich (Germany). DMSO and HBSS (Hanks' Balanced Salt Solution) were purchased from Merck (Germany). MTT was sourced from Alfa Aesar (Kandel, Germany). 6-OHDA hydrobromide (CAS: 636-00-0) was acquired from Sigma-Aldrich (Germany).
(§4) Cell counts were performed on a Neubauer chamber using a Nikon Eclipse TS100 microscope from Nikon (Japan), and plate readings (MTT reduction and NR uptake assays) were conducted on a BioTek Synergy HT plate reader from BioTek (USA). Tissue culture flasks (25 cm²) and tissue culture 48 -well plates were purchased from TPP (Switzerland), while 5-, 10-, and 25-mL serological pipettes were obtained from Nerbe-Plus (Germany). Throughout all procedures, SH-SY5Y cells were maintained in a 5% CO2 incubator from Heraeus (Germany) at 37 °C. Cells were trypsinized after reaching confluence before experiments or for general culture maintenance.
(§5) Human neuroblastoma SH-SY5Y cells were maintained in complete DMEM medium supplemented with 10% (v/v) FBS and 1% (v/v) antibiotics (100 units/mL penicillin and 100 μg/mL streptomycin), at 37 °C in a 5% CO2 incubator throughout all procedures. […] After trypsin inactivation, cells were counted using a 0.4% (w/v) trypan blue solution and an optical microscope. […]

[2] = test system: differentiated SH-SY5Y neuronal cells; test: Neutral red (NR) uptake assay in differentiated SH-SY5Y cells; assay type: cell-based, human; conditions: 125 μM, 48 h; positive control for cytotoxicity
Protocol: as §1, §2, §3, §4, §5

[3] = test system: dopamine receptors isolated from bovine caudate tissue; parameters: method as in Johnson and co-workers; conditions: 100 nM; ref Johnson and co-workers; cited from earlier work
[4] = MTT reduction assay in differentiated SH-SY5Y cells; assay type: cell-based, human; conditions: human
Protocol: as §1, §2, §3, §4, §5

[5] = Neutral red (NR) uptake assay in differentiated SH-SY5Y cells; assay type: cell-based, human; conditions: human
Protocol: as §1, §2, §3, §4, §5

human D2R = human D2R (Homo sapiens, UniProt P14416); test: D2R functional assay in the absence of dopamine (intrinsic agonist activity); assay type: cell-based
Protocol: To exclude intrinsic agonist activity and validate the PAM mechanism of the best-performing MIF-1 derivatives 1 and 9, the same experiments were conducted in the absence of dopamine and compared to the concentration–response curve of dopamine alone (Figure ).
3 Concentration–response for compounds 1 and 9 obtained at human D2R in the absence of dopamine (DA), with the DA concentration–response curve included for reference. Data are presented as the mean ± standard deviation from three independent experiments.

Chain of human D2R (P14416 whole entry): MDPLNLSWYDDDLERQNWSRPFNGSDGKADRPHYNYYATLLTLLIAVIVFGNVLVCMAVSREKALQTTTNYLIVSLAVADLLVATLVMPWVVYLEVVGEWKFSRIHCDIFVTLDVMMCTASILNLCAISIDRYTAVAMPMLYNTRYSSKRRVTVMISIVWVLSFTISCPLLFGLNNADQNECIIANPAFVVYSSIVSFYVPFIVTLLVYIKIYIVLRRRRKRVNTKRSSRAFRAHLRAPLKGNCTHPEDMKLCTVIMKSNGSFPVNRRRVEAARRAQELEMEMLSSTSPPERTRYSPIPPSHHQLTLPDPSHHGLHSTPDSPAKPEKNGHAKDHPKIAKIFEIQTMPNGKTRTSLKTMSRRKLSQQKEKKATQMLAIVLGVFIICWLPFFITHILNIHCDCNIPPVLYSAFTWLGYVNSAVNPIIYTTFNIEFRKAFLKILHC

SMILES: NCCc1cc(O)c(O)cc1O [6-OHDA, 6-hydroxydopamine, reference compound]
MTT reduction, percentage relative to control (PBS) [1]: 45.64 ± 11.85%
NR uptake, percentage relative to control (PBS) [2]: 57.26 ± 7.41%

SMILES: CC(C)C[C@H](NC(=O)[C@@H]1CCCN1)C(=O)NCC(N)=O [MIF-1, L-prolyl-L-leucylglycinamide, reference compound] (H-Pro-Leu-Gly-NH2)
enhancement of specific binding of [3H]-ADTN (maximal effect) [3]: 46.2 ± 13.4%
viability at 48 h, 100 µM [4]: 105 ± 6%
viability at 48 h, 100 µM [5]: 97.8 ± 8.56%

intrinsic agonistic effect (human D2R): no intrinsic agonistic effect
SMILES: CC(C)C[C@H](NC(=O)[C@@H]1CCCCN1)C(=O)NCC(N)=O [compound 1, L-pipecolyl-L-leucylglycinamide] (HELM PEPTIDE1{[O=C([C@@H]1CCCCN1)[*:2]].L.G.[am]}$$$$V2.0)
enhancement of specific binding of [3H]-ADTN (maximal effect) [3]: 58.7 ± 9.3%
viability at 48 h, 100 µM [4]: 105 ± 7.1%
viability at 48 h, 100 µM [5]: 102 ± 3.48%

intrinsic agonistic effect (human D2R): no intrinsic agonistic effect
SMILES: COC(=O)CNC(=O)[C@H](CC(C)C)NC(=O)[C@@H]1CCCCN1 [compound 9, methyl L-pipecolyl-L-leucylglycinate] (HELM PEPTIDE1{[O=C([C@@H]1CCCCN1)[*:2]].L.G.[CO[*:1]]}$$$$V2.0)
viability at 48 h, 100 µM [4]: 105 ± 6.8%
viability at 48 h, 100 µM [5]: 100 ± 2.09%
